Reference: patent US8093249B2, “Pyrazolo[1,5-A]pyrimidine-carbonyl-piperazine derivatives” (Convergence Pharmaceuticals Limited, priority 2008, dated 2012)

Target: T1, hCaV2.2 (Homo sapiens, UniProt Q00975)
T1 construct: expressed in transfected cells; plasmids pCIN5-hCaV2.2, pCIH-hCaV β3, pCIP-α2δ1
Assay: hCaV2.2 assay (IonWorks planar array electrophysiology, HEK293 stable cell line)
Type: cell-based
Settings: inhibition of current elicited by the 1st depolarizing pulse by 50%, HEK293 cells expressing human CaV2.2 α/β3/α2δ1; read-out: mean pIC50 value (tonic pIC50) (converted)
Excerpt: Compounds of the invention may be tested for in vitro biological activity in the hCaV2.2 assay in accordance with the following studies:
Stable cell lines expressing the human CaV2.2 α (α1B) subunit, along with the human β3 and α2δ1 auxillary subunits were created following sequential transfection and selection of human embryonic kidney (HEK293) cells. […] Initially HEK293 cells were transfected with two plasmid vectors for expression of the hCaV2.2 α subunit (pCIN5-hCaV2.2 which carries a neomycin resistance marker) and the hCaV β3 subunit (pCIH-hCaV β3 which carries a hygromycin resistance marker). […] These clonal cell lines were assessed for Cav2.2 α/β3-mediated current expression using the IonWorks planar array electrophysiology technology (described below). […] Expression of all three subunits within this cell line was continuously maintained by the inclusion of G418 (0.4 mg ml^−1), hygromycin (0.1 mg ml^−1) and puromycin (0.62 μg ml^−1). Cells were maintained at 37° C. in a humidified environment containing 5% CO2 in air.
Cells were grown to 30-60% confluence in T175 flasks and maintained at 30° C. for 24 hours prior to recording. […] Lifted cells were suspended in 10 ml of extracellular buffer. Cell suspension was then placed into a 15 ml tube and centrifuged for 2 minutes at 700 rpm. After centrifugation, the supernatant was removed and the cell pellet was resuspended in 4.5 ml of extracellular solution.
Currents were recorded at room temperature (21-23° C.) using the IonWorks planar array electrophysiology technology (Molecular Devices Corp.). Stimulation protocols and data acquisition were carried out using a microcomputer (Dell Pentium 4). In order to determine planar electrode hole resistances (Rp), a 10 mV, 160 ms potential difference was applied across each hole. These measurements were performed before cell addition. After cell addition a seal test was performed prior to antibiotic (amphotericin) circulation to achieve intracellular access. Leak subtraction was conducted in all experiments by applying a 160 ms hyperpolarizing (10 mV) prepulse 200 ms before the test pulses to measure leak conductance. Test pulses stepping from the holding potential (VH) of −90 mV to +10 mV were applied for 20 ms and repeated 10 times at a frequency of 10 Hz. In all experiments, the test pulse protocol was performed in the absence (pre-read) and presence (post-read) of a compound. Pre- and post-reads were separated by a compound addition followed by a 3-3.5 min incubation.
The intracellular solution contained the following (in mM): K-gluconate 120, KCl 20 mM, MgCl2 5, EGTA 5, HEPES 10, adjusted to pH 7.3. Amphotericin was prepared as 30 mg/ml stock solution and diluted to a final working concentration of 0.2 mg ml^−1 in intracellular buffer solution. The extracellular solution contained the following (in mM): Na-gluconate 120, NaCl 20, MgCl2 1, HEPES 10, BaCl2 5, adjusted to pH 7.4.
Finally the compounds were diluted 1:100 in external solution resulting in a final DMSO concentration of 1%.
Paired comparisons between pre-compound and post-compound additions were used to determine the inhibitory effect of each compound. […] In addition the use-dependent inhibitory properties of the compounds were determined by assessing the effect of compounds on the 10th versus 1st depolarizing pulse. The ratio of the 10th over 1st pulse was determined in the absence and presence of drug and the % use-dependent inhibition calculated.
Compounds were tested in the form as described in the Examples. […] Variations in pUD30 and pIC50 values may arise between tests.

T1 sequence (Q00975 whole entry): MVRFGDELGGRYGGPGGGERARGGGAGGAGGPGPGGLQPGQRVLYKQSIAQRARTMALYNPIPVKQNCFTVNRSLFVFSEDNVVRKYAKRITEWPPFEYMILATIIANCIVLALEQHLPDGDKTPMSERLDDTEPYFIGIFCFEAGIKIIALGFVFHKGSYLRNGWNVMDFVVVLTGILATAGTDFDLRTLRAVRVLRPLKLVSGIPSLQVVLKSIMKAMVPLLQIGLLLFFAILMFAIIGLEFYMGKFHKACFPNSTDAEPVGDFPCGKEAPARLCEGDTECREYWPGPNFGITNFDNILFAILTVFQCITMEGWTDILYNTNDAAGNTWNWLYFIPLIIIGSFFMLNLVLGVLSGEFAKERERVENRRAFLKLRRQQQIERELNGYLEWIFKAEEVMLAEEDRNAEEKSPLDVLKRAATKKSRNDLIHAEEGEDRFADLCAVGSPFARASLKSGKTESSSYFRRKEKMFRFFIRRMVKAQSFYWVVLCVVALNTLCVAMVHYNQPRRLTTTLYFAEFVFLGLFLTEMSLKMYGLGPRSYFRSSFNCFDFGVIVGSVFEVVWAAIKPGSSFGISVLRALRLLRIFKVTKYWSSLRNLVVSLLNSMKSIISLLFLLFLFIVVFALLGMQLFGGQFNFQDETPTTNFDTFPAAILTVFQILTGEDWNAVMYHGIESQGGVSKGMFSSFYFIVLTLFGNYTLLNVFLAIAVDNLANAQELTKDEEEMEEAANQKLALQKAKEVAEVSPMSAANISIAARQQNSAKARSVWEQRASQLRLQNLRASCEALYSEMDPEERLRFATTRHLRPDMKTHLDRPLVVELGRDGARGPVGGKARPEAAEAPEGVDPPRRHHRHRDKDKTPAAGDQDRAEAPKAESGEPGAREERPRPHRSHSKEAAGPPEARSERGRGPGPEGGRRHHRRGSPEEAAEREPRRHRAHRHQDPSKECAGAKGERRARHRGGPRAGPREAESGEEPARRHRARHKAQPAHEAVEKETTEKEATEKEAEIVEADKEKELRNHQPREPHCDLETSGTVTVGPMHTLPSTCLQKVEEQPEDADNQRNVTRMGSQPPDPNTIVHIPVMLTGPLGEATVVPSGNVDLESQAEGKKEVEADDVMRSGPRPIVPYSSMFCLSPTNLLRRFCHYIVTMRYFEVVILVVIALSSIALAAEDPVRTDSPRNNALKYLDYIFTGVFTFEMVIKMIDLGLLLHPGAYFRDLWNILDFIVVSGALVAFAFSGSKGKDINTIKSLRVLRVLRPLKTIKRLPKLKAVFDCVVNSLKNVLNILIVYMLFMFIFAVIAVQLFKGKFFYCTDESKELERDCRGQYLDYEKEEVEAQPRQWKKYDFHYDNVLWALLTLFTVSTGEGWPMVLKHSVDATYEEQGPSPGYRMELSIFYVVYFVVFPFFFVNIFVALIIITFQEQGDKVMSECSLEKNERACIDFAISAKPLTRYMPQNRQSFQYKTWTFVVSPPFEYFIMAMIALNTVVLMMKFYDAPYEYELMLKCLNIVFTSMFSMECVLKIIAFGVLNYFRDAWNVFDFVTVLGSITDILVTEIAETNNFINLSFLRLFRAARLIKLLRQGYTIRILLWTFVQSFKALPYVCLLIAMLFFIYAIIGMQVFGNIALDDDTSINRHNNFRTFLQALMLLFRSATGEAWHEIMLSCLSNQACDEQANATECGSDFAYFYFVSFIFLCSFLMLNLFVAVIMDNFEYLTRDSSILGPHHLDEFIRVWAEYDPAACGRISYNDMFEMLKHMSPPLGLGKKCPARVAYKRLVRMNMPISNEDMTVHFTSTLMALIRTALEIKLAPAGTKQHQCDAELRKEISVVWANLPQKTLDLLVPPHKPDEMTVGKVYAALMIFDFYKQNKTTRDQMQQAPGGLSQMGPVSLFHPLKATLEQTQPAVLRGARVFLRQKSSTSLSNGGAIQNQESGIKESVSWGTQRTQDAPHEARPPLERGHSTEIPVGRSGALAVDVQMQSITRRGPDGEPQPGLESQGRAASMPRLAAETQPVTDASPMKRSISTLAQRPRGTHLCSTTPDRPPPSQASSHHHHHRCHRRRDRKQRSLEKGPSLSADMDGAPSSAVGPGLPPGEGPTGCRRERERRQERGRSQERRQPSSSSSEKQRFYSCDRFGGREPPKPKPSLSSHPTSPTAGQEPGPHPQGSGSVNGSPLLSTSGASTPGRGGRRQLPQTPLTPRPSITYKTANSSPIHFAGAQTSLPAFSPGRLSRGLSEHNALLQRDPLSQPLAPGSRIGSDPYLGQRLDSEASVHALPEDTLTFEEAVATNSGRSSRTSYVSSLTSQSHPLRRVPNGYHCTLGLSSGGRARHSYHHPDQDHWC
T1 sequence (P54284 whole entry partner): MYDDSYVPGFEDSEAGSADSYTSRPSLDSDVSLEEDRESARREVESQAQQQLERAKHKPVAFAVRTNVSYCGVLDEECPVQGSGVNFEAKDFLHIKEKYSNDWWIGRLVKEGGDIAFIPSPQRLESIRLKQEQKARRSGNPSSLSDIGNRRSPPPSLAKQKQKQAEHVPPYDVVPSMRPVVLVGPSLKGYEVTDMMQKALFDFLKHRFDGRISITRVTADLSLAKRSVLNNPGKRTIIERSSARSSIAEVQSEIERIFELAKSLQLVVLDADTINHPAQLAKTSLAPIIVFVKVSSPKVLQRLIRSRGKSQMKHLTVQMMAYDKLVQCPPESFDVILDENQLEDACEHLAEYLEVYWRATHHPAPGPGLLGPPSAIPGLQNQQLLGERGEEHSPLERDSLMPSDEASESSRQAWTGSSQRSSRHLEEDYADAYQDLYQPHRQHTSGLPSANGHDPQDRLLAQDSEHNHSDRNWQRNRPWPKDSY
T1 sequence (P54289 25-946 partner limits assumed): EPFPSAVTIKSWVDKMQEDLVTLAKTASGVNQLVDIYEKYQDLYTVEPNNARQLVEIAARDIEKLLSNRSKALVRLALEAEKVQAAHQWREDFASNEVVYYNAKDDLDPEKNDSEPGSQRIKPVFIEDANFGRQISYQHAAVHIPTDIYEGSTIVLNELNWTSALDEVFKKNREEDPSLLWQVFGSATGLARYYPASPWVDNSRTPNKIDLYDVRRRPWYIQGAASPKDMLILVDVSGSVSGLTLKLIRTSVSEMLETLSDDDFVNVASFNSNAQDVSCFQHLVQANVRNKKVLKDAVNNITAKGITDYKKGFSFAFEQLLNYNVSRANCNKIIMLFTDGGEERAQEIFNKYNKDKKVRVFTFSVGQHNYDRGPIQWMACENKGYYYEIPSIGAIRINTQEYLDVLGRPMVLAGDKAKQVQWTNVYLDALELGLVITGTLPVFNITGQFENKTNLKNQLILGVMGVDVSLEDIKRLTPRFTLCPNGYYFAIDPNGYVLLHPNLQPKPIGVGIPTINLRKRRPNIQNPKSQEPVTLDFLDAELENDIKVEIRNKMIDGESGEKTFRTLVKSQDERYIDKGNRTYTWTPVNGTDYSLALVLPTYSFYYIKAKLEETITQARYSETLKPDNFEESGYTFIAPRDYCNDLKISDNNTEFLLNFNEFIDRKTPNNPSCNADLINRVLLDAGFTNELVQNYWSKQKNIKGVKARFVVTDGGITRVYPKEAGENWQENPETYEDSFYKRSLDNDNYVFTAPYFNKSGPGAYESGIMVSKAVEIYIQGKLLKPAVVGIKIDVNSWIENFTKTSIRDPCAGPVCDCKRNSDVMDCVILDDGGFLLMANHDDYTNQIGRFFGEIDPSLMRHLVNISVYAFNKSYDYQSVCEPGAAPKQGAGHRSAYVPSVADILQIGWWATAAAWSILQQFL
T1 sequence (P54289 947-1103 partner limits assumed): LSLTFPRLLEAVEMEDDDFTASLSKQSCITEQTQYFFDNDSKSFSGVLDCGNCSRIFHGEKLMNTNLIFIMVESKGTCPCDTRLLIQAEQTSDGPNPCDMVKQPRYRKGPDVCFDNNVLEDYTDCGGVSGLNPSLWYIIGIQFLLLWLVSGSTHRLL

| Structure (SMILES) | IC50 [µM] |
| --- | --- |
| C[C@H]1CN(S(=O)(=O)c2ccc(C(F)(F)F)cc2)CCN1C(=O)c1cnn2cccnc12 [Example 2, 3-[((2S)-2-Methyl-4-{[4-(trifluoromethyl)phenyl]sulfonyl}-1-piperazinyl)carbonyl]pyrazolo[1,5-a]pyrimidine] | ≥ 10 |
| C[C@H]1CN(C(=O)c2cnn3cccnc23)CCN1S(=O)(=O)c1ccc(C(F)(F)F)cc1 [Example 4, 3-[((3S)-3-Methyl-4-{[4-(trifluoromethyl)phenyl]sulfonyl}-1-piperazinyl)carbonyl]pyrazolo[1,5-a]pyrimidine] | ≥ 31.6 |
| C[C@@H]1CN(S(=O)(=O)c2ccc(OC(F)(F)F)cc2)CCN1C(=O)c1cnn2cccnc12 [Example 22, 3-{[(2R)-2-methyl-4-({4-[(trifluoromethyl)oxy]phenyl}sulfonyl)-1-piperazinyl]carbonyl}pyrazolo[1,5-a] pyrimidine] | ≥ 31.6 |
| C[C@H]1CN(S(=O)(=O)c2ccc(C(F)(F)F)cc2)CCN1C(=O)c1cnn2cc(F)cnc12 [Example 9, 6-Fluoro-3-[((2S)-2-methyl-4-{[4-(trifluoromethyl)phenyl]sulfonyl}-1-piperazinyl)carbonyl]pyrazolo[1,5-a]pyrimidine] | ≥ 10 |
| Cc1cc(C#N)ccc1S(=O)(=O)N1CCN(C(=O)c2cnn3cccnc23)[C@@H](C)C1 [Example 5, 3-Methyl-4-{[(3S)-3-methyl-4-(pyrazolo[1,5-a]pyrimidin-3-ylcarbonyl)-1-piperazinyl]sulfonyl}benzonitrile] | ≥ 31.6 |
| Cc1cnc2c(C(=O)N3CCN(S(=O)(=O)c4ccc(C(F)(F)F)cc4)CC3)cnn2c1 [Example 6, 6-Methyl-3-[(4-{[4-(trifluoromethyl)phenyl]sulfonyl}-1-piperazinyl)carbonyl]pyrazolo[1,5-a]pyrimidine] | ≥ 31.6 |
| Cc1ccc(C(F)(F)F)cc1S(=O)(=O)N1CCN(C(=O)c2cnn3cccnc23)CC1 [Example 19, 3-[(4-{[2-methyl-5-(trifluoromethyl)phenyl]sulfonyl}-1-piperazinyl)carbonyl]pyrazolo[1,5-a] pyrimidine] | ≥ 31.6 |
| C[C@@H]1CN(C(=O)c2cnn3cccnc23)CCN1S(=O)(=O)c1ccc(C(F)(F)F)cc1 [Example 3, 3-[((3R)-3-Methyl-4-{[4-(trifluoromethyl)phenyl]sulfonyl}-1-piperazinyl)carbonyl]pyrazolo[1,5-a]pyrimidine] | ≥ 31.6 |
| C[C@H]1CN(C(=O)c2cnn3cccnc23)CCN1S(=O)(=O)c1ccc(OC(F)(F)F)cc1 [Example 15, 3-{[(3S)-3-methyl-4-({4-[(trifluoromethyl)oxy]phenyl}sulfonyl)-1-piperazinyl]carbonyl}pyrazolo[1,5-a] pyrimidine] | ≥ 31.6 |
| Cc1cc(C#N)ccc1S(=O)(=O)N1CCN(C(=O)c2cnn3cc(Cl)cnc23)[C@@H](C)C1 [Example 16, 4-({(3S)-4-[(6-chloropyrazolo[1,5-a]pyrimidin-3-yl)carbonyl]-3-methyl-1-piperazinyl}sulfonyl)-3-methylbenzonitrile] | ≥ 10 |
| Cc1cnc2c(C(=O)N3CCN(S(=O)(=O)c4ccc(C#N)cc4C)C[C@@H]3C)cnn2c1 [Example 23, 3-methyl-4-({(3S)-3-methyl-4-[(6-methylpyrazolo[1,5-a]pyrimidin-3-yl)carbonyl]-1-piperazinyl}sulfonyl)benzonitrile] | ≥ 31.6 |
| C[C@@H]1CN(C(=O)c2cnn3cccnc23)CCN1S(=O)(=O)c1ccc(OC(F)(F)F)cc1 [Example 21, 3-{[(3R)-3-methyl-4-({4-[(trifluoromethyl)oxy]phenyl}sulfonyl)-1-piperazinyl]carbonyl}pyrazolo[1,5-a] pyrimidine] | ≥ 31.6 |
| Cc1ccc(C(F)(F)F)cc1S(=O)(=O)N1CCN(C(=O)c2cnn3cccnc23)[C@@H](C)C1 [Example 18, 3-[((2S)-2-methyl-4-{[2-methyl-5-(trifluoromethyl)phenyl]sulfonyl}-1-piperazinyl)carbonyl]pyrazolo[1,5-a] pyrimidine] | ≥ 31.6 |
| O=C(c1cnn2cccnc12)N1CCN(S(=O)(=O)c2ccc(OC(F)(F)F)cc2)CC1 [Example 8, 3-{[4-({4-[(trifluoromethyl)oxy]phenyl}sulfonyl)-1-piperazinyl]carbonyl}pyrazolo[1,5-a]pyrimidine] | ≥ 31.6 |
| Cc1cc(C)n2ncc(C(=O)N3CCN(S(=O)(=O)c4ccc(C(F)(F)F)cc4)CC3)c2n1 [Example 14, 5,7-dimethyl-3-[(4-{[4-(trifluoromethyl)phenyl]sulfonyl}-1-piperazinyl)carbonyl]pyrazolo[1,5-a] pyrimidine] | ≥ 31.6 |
| C[C@@H]1CN(S(=O)(=O)c2ccc(C(F)(F)F)cc2)CCN1C(=O)c1cnn2cccnc12 [Example 7, 3-[((2R)-2-Methyl-4-{[4-(trifluoromethyl)phenyl]sulfonyl}-1-piperazinyl)carbonyl]pyrazolo[1,5-a]pyrimidine] | ≥ 31.6 |
| O=C(c1cnn2cccnc12)N1CCN(S(=O)(=O)c2ccc(C(F)(F)F)cc2)CC1 [Example 1, 3-[(4-{[4-(Trifluoromethyl)phenyl]sulfonyl}-1-piperazinyl)carbonyl]pyrazolo[1,5-a]pyrimidine] | ≥ 31.6 |
| Cc1cc(C#N)ccc1S(=O)(=O)N1CCN(C(=O)c2c(C)nn3cccnc23)[C@@H](C)C1 [Example 24, 3-methyl-4-({(3S)-3-methyl-4-[(2-methylpyrazolo[1,5-a]pyrimidin-3-yl)carbonyl]-1-piperazinyl}sulfonyl)benzonitrile] | ≥ 31.6 |
| C[C@H]1CN(S(=O)(=O)c2ccc(OC(F)(F)F)cc2)CCN1C(=O)c1cnn2cccnc12 [Example 11, 3-{[(2S)-2-methyl-4-({4-[(trifluoromethyl)oxy]phenyl}sulfonyl)-1-piperazinyl]carbonyl}pyrazolo[1,5-a]pyrimidine] | ≥ 31.6 |
| Cc1nn2cccnc2c1C(=O)N1CCN(S(=O)(=O)c2ccc(C(F)(F)F)cc2)C[C@@H]1C [Example 20, 2-methyl-3-[((2S)-2-methyl-4-{[4-(trifluoromethyl)phenyl]sulfonyl}-1-piperazinyl)carbonyl]pyrazolo[1,5-a] pyrimidine] | ≥ 10 |

Same assay, conditions: mean pIC50 value (tonic pIC50), inhibition of current elicited by the 1st depolarizing pulse by 50%, HEK293 cells expressing human CaV2.2 α/β3/α2δ1

| Structure (SMILES) | IC50 [µM] |
| --- | --- |
| Cc1cc(C#N)ccc1S(=O)(=O)N1CCN(C(=O)c2cnn3cc(F)cnc23)[C@@H](C)C1 [Example 10, 4-({(3S)-4-[(6-fluoropyrazolo[1,5-a]pyrimidin-3-yl)carbonyl]-3-methyl-1-piperazinyl}sulfonyl)-3-methylbenzonitrile] | ≥ 31.6 |
